Source: patent US8846937B2, “Mono quaternary ammonium salts and methods for modulating neuronal nicotinic acetylcholine receptors” (University of Kentucky Research Foundation, priority 2006, dated 2014)

Assays:
[1] = system: nicotinic receptors, NIC-evoked [^3H]DA release from rat striatal slices; test: Inhibition of nicotine-evoked [^3H]dopamine release from superfused rat striatal slices; type: cell-based; conditions: 1 h, 100 nM analog superfused 60 minutes prior to NIC (10 μM)
Method: Rat striatal slices (500 μm thickness, 6-8 mg wet weight) were incubated for 30 minutes in Krebs buffer (118 mM NaCl, 4.7 mM KCl, 1.2 mM MgCl2, 1.0 mM NaH2PO4, 1.3 mM CaCl2, 11.1 mM glucose, 25 mM NaHCO3, 0.11 mM L-ascorbic acid, and 0.004 mM disodium EDTA at pH 7.4, and saturated with 95% O2/5% CO2) in a metabolic shaker at 34° C. Slices were rinsed with 15 mL of fresh buffer, and were incubated for an additional 30 minutes in fresh buffer containing 0.1 μM [^3H]dopamine (DA; 6 slices/3 mL). Subsequently, slices were rinsed with 15 mL of fresh buffer and transferred to a glass superfusion chamber. Slices were superfused (1.0 mL/min) for 60 minutes with Krebs buffer containing nomifensine (10 μM) and pargyline (10 μM), and maintained at 34° C., pH 7.4, with continual aeration (95% O2/5% CO2). Two five minute samples (5 mL each) were collected to determine basal outflow of [^3H]DA. The test compounds of Formula (I) were added to the superfusion buffer after the collection of the second sample, and were maintained in the buffer until 12 consecutive five minute samples were collected. Subsequently, S-(−)-nicotine (10 μM) was added to the buffer, and an additional 12 consecutive five minute samples were collected. At the end of the experiment, each slice was solubilized, and the [^3H]content of the tissue determined.
Radioactivity in the superfusate and tissue samples was determined by liquid scintillation spectroscopy. Fractional release of tritium collected in each sample was divided by the total tritium present in the tissue at the time of sample collection, and the fractional release of tritium collected was expressed as a percentage of total tritium. Basal [^3H]outflow was calculated from the average of the tritium collected in the two five minute samples just before addition of a test compound of Formula (I). The sum of the increase in collected tritium resulting from either exposure to a test compound of Formula (I), or exposure to S(−) nicotine in the absence and presence of a test compound of Formula (I) equaled total [^3H]overflow. [^3H]Overflow was calculated by subtracting the [^3H]outflow during an equivalent period of pre-stimulation from the values in samples collected during and after drug exposure. Inasmuch as the radio-labeled compounds were not separated and identified, the tritium collected in superfusate is referred to as either [^3H]outflow or [^3H]overflow, rather than as [^3H]DA. [^3H]Overflow primarily represents [^3H]DA in the presence of nomifensine and pargyline in the superfusion buffer.
The quaternary analogs of Formula (I) were also evaluated for their ability to inhibit NIC-evoked [^3H]DA release. In these experiments, the striatal slices were superfused for 60 minutes with 100 nM concentration of the quaternary analogs prior to NIC (10 μM) exposure. Antagonist activity was evaluated by comparing the NIC-evoked [^3H]overflow in the absence and presence of the analogs. The relative order of potency of the quaternary analogs of Formula (I) for inhibition of NIC-evoked [^3H]DA release from rat striatal slices is illustrated in Table 1.
^aData are % inhibition at 100 nM concentration of the mono quaternary analogs for at least 1-3 independent experiments; with the exception of when a Ki value in μM is provided, in which case a full concentration effect was evaluated. Specific binding in the [^3H]NIC binding assay is calculated as the difference between the total binding of 3 nM [^3H]NIC and nonspecific binding in the presence of 10 μM cold nicotine. Specific binding for the [^3H]MLA binding assay is calculated as the difference between the total binding of 2.5 nM [^3H]MLA to the receptors alone and its nonspecific binding in the presence of 1 μM cold MLA. Analog-induced inhibition of nicotine-evoked [^3H]DA release is calculated as a percent of that in the absence of the mono quaternary ammonium analog. ND indicates not determined.

[2] = biological target: T1, Rat Striatal Nicotinic Receptors ([^3H]MLA binding) (Rattus norvegicus, UniProt Q05941); test: Inhibition of [^3H]methyllycaconitine (MLA) binding to brain membranes; conditions: for inhibition at 0.1 µM: % inhibition at 100 nM analog, 2.5 nM [^3H]MLA, nonspecific 1 μM MLA (footnote)
T1 construct: Whole brain, excluding cortex and cerebellum, was homogenized; from tissue; host or cells: rat brain membranes (whole brain excluding cortex and cerebellum)
Method: (§1) Test compounds of Formula (I), representing the mono quaternary nicotine analogs of the present invention, were evaluated to determine the effect of a test compound on nicotine-binding and methyllycaconitine-binding mediated by nicotine acetylcholine receptors.
Homogenate was centrifuged (25,000 g, 15 min, 4° C.). Pellets were resuspended in 20 volumes of buffer and incubated at 37° C., for 10 min, cooled to 4° C. and centrifuged (25,000 g, 15 min, 4° C.). Pellets were resuspended and centrifuged using the same conditions. […] Upon use, final pellets were resuspended in ˜20 volumes of assay buffer. […] A control sample absent test compounds of Formula (I) was also prepared. […] Incubations proceeded for 60 min at a room temperature using 96-well plates, and were terminated by harvesting on Unifilter-96 GF/B filter plates presoaked in 0.5% polyethylenimine, using a Packard FilterMate harvester. After washing 5 times with 350 μl ice-cold assay buffer, the filter plates were dried (60 min, 4° C.), bottom-sealed, and filled with Packard's MicroScint 20 cocktail (40 μl/well). After 60 min, filter plates were top-sealed, and levels of radioactivity were determined using a Packard TopCount. Protein concentrations were determined using the Bradford dye-binding procedure using bovine serum albumin as a standard protein. […]

[3] = biological target: T2, Rat Striatal Nicotinic Receptors ([^3H]NIC binding) (Rattus norvegicus, UniProt P09483+P12390); test: Inhibition of [^3H]nicotine binding to brain membranes; conditions: 3 nM [^3H]NIC; for inhibition at 0.1 µM: % inhibition at 100 nM analog, nonspecific 10 μM nicotine
T2 construct: Whole brain, excluding cortex and cerebellum, was homogenized; from tissue; host or cells: rat brain membranes (whole brain excluding cortex and cerebellum)
Method: as §1
Homogenate was centrifuged (25,000 g, 15 min, 4° C.). Pellets were resuspended in 20 volumes of buffer and incubated at 37° C., for 10 min, cooled to 4° C. and centrifuged (25,000 g, 15 min, 4° C.). Pellets were resuspended and centrifuged using the same conditions. […] Upon use, final pellets were resuspended in ˜20 volumes of assay buffer. Samples (250 μl) contained 100-140 μg of membrane protein, 3 nM [^3H]nicotine or 3 nM [^3H]methyllycaconitine (MLA), and test compounds of Formula (I) (100 nM) in assay buffer containing 50 mM Tris. A control sample absent test compounds of Formula (I) was also prepared. In the [^3H]nicotine-binding assay and [^3H]MLA-binding assay, nonspecific-binding was determined in the presence of 10 μM nicotine and 10 μM MLA, respectively. Incubations proceeded for 60 min at a room temperature using 96-well plates, and were terminated by harvesting on Unifilter-96 GF/B filter plates presoaked in 0.5% polyethylenimine, using a Packard FilterMate harvester. After washing 5 times with 350 μl ice-cold assay buffer, the filter plates were dried (60 min, 4° C.), bottom-sealed, and filled with Packard's MicroScint 20 cocktail (40 μl/well). After 60 min, filter plates were top-sealed, and levels of radioactivity were determined using a Packard TopCount. Protein concentrations were determined using the Bradford dye-binding procedure using bovine serum albumin as a standard protein.
Specific binding in the [^3H]NIC binding assay is calculated as the difference between the total binding of 3 nM [^3H]NIC and nonspecific binding in the presence of 10 μM cold nicotine. […] Analog-induced inhibition of nicotine-evoked [^3H]DA release is calculated as a percent of that in the absence of the mono quaternary ammonium analog. ND indicates not determined.

T1 sequence (Q05941 23-502): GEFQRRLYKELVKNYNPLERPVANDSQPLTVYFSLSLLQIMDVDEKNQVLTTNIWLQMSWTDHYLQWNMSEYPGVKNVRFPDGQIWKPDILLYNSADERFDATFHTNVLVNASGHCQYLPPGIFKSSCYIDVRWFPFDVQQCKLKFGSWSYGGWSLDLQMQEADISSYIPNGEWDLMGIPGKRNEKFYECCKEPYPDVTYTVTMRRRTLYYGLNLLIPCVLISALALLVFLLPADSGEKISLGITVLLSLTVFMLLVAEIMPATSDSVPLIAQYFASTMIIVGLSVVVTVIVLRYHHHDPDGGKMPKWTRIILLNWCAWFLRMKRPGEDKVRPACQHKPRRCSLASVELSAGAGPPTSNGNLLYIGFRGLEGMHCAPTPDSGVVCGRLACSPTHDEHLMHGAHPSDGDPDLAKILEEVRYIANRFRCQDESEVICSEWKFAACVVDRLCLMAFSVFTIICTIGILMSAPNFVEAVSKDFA
T2 sequence (P09483 31-630): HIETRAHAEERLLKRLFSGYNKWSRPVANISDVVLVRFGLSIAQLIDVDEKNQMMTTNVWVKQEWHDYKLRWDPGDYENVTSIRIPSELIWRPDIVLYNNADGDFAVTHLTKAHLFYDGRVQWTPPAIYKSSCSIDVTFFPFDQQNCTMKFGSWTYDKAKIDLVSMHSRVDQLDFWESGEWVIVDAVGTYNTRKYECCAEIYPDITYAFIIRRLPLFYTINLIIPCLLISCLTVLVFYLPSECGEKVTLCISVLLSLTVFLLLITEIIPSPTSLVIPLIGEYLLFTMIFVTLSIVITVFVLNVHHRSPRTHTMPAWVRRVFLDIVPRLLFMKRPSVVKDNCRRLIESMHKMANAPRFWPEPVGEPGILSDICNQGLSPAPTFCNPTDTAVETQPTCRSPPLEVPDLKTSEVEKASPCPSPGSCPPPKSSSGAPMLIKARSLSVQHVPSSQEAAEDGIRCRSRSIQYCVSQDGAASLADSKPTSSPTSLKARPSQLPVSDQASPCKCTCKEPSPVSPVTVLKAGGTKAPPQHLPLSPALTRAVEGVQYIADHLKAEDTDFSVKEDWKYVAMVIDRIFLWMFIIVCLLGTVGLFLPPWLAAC
T2 sequence (P12390 25-500): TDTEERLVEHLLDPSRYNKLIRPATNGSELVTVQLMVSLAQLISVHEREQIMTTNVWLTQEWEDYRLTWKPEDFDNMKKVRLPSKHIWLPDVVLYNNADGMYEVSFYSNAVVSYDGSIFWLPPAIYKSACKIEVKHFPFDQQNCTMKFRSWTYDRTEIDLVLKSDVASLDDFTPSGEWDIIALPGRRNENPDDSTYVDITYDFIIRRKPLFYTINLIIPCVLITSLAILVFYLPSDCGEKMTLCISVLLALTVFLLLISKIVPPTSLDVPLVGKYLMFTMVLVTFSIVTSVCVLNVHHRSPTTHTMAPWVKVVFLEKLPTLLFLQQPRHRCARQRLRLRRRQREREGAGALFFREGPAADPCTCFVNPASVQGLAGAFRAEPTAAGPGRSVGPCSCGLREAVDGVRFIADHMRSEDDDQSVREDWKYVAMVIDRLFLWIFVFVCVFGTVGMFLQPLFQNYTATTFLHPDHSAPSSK

Compound | inhibition at 0.1 µM [1] [%] | inhibition at 0.1 µM [2] [%] | inhibition at 0.1 µM [3] [%] | Ki ([2]; full concentration effect, 2.5 nM [^3H]MLA (footnote)) [µM] | Ki ([3]; full concentration effect) [µM]
Cc1cccc[n+]1CCCCCCCCc1ccccc1 | 62 | 0 | 0 | – | –
CCCCc1ccc(CCCC[n+]2ccccc2C)cc1 | – | 0 | 0 | – | –
CCCCc1ccc(C#CCC[n+]2cccc(C)c2)cc1 | 11 | 0 | 0 | – | –
CCCCc1ccc(CCCC[n+]2cccc(C)c2)cc1 | 33 | 2 | 4 | – | –
Cc1ccc[n+](CCCCCCCCCCCCCc2cccnc2)c1 | 31 | 2 | 0 | – | –
CCCCc1ccc(C#CCC[n+]2ccc(C)cc2)cc1 | 11 | 3 | 6 | – | –
CCCCc1ccc(CCCC[n+]2ccc(C)cc2)cc1 | 58 | 0 | 5 | – | –
CCCCc1ccc(C#CCC[n+]2cccc(CC)c2)cc1 | – | 0 | 0 | – | –
CCCCc1ccc(CCCC[n+]2ccc3c(c2)CCCC3)cc1 | – | – | – | 14 | > 100
CCCCc1ccc(C#CCC[n+]2cccc(CCCO)c2)cc1 | – | 0 | 0 | – | –
CCCCc1ccc(CCCC[n+]2cccc(CCCO)c2)cc1 | 64 | 0 | 0 | – | –
CCCCc1ccc(CCCC[n+]2ccc(C)cc2C)cc1 | 19 | 0 | 6 | – | –
Cc1cc[n+](CCCCCCCCc2ccccc2)c(C)c1 | 14 | 9 | 0 | – | –
CCCCc1ccc(C#CCC[n+]2ccc(C)c(C)c2)cc1 | – | 10 | 0 | – | –
Cc1cc[n+](CCCCCCCCCCCCCc2cccnc2)cc1C | 20 | 0 | 3 | – | –
CCCCc1ccc(CCCC[n+]2ccc(C)c(C)c2)cc1 | – | 0 | 0 | – | –
CCCCc1ccc(C#CCC[n+]2cc(C)cc(C)c2)cc1 | – | 0 | 0 | – | –
CCCCc1ccc(CCCC[n+]2cc(C)cc(C)c2)cc1 | – | 0 | 0 | – | –
Cc1cc(C)c[n+](CCCCCCCCCCCCCc2cccnc2)c1 | 35 | 0 | 0 | – | –
Cc1cccc[n+]1CCCC#Cc1ccc(-c2ccccc2)cc1 | 45 | 7 | 2 | – | –

Compound | inhibition at 0.1 µM [1] [%] | inhibition at 0.1 µM [2] [%] | inhibition at 0.1 µM [3] [%] | Ki ([2]; full concentration effect, 2.5 nM [^3H]MLA (footnote)) [µM] | Ki ([3]; full concentration effect) [µM]
Cc1cccc[n+]1CCCCCc1ccc(-c2ccccc2)cc1 | 45 | – | – | – | –
Cc1ccc[n+](CCCC#Cc2ccc(-c3ccccc3)cc2)c1 | 41 | 2 | 0 | – | –
Cc1ccc[n+](CCCCCc2ccc(-c3ccccc3)cc2)c1 | 55 | 7 | 4 | – | –
Cc1cc[n+](CCCCCc2ccc(-c3ccccc3)cc2)cc1 | 18 | – | – | – | –
Cc1cc[n+](CCCC#Cc2ccc(-c3ccccc3)cc2)cc1 | 40 | 3 | 0 | – | –
Cc1cc(C)c[n+](CCCC#Cc2ccc(-c3ccccc3)cc2)c1 | 51 | 3 | 8 | – | –
Cc1cc(C)c[n+](CCCCCc2ccc(-c3ccccc3)cc2)c1 | 51 | – | – | – | –
Cc1cc[n+](CCCC#Cc2ccc(-c3ccccc3)cc2)cc1C | 20 | 8 | 0 | – | –
Cc1cc[n+](CCCCCc2ccc(-c3ccccc3)cc2)cc1C | 38 | – | – | – | –
Cc1cc[n+](CCCC#Cc2ccc(-c3ccccc3)cc2)c(C)c1 | 5 | 6 | 2 | – | –
Cc1cc[n+](CCCCCc2ccc(-c3ccccc3)cc2)c(C)c1 | 39 | – | – | – | –
C(#Cc1ccc(-c2ccccc2)cc1)CCC[n+]1cccc2ccccc21 | 23 | 7 | 1 | – | –
c1ccc(-c2ccc(CCCCC[n+]3cccc4ccccc43)cc2)cc1 | 61 | – | – | – | –
C(#Cc1ccc(-c2ccccc2)cc1)CCC[n+]1ccc2ccccc2c1 | – | 6 | 0 | – | –
c1ccc(-c2ccc(CCCCC[n+]3ccc4ccccc4c3)cc2)cc1 | – | 6 | 0 | – | –
CN1CCC[C@H]1c1ccc[n+](CCCC#Cc2ccc(-c3ccccc3)cc2)c1 | 47 | 6 | 20 | – | –
CN1CCC[C@H]1c1ccc[n+](CCCCCc2ccc(-c3ccccc3)cc2)c1 | 51 | – | – | – | –
CCCCc1ccc[n+](CCCCCc2ccc(-c3ccccc3)cc2)c1 | 43 | – | – | – | –
C(#Cc1ccc(-c2ccccc2)cc1)CCC[n+]1cccc(-c2ccccc2)c1 | – | 6 | 8 | – | –
c1ccc(-c2ccc(CCCCC[n+]3ccccc3)cc2)cc1 | 30 | – | – | – | –
